# Results as given in patent US11945798B2, “Substituted aminopyridine compounds as EGFR inhibitors” (YUHAN CORPORATION, priority 2021, dated 2024).
# Read-outs that look alike come from different tables or passages of the source.
# Key:
# EGFR del19/T790M/C797S = EGFR del19/T790M/C797S (Homo sapiens, UniProt P00533, C797S/DEL746-750/T790M); assay: Biochemical EGFR kinase assay (Lance Ultra TR-FRET), del19/T790M/C797S
# Procedure: (§1) Biochemical EGFR kinase assays were conducted using Lance Ultra time-resolved fluorescence resonance energy transfer (TR-FRET) technology from Perkin-Elmer. Compounds of the invention were initially diluted to 20 mM in 100% DMSO for storage and made into kinase buffer solution to create a compound concentration ranging from 0.003 μM and 10 μM.
# (§2) Each kinase reactions were incubated at room temperature for 1 hour and then stopped by the addition of 4 μL of stop solution (10 mM EDTA). The specific Europium-labeled-anti-phosphopeptide antibody (PerkinElmer, AD0069) diluted in LANCE detection buffer was then added to a final concentration of 2 nM. After 60 minutes incubation at room temperature the LANCE signal was measured on an EnVision Multilabel Reader (Perkin-Elmer). Excitation wavelength was set at 320 nm and emission monitored at 615 nm (donor) and 665 nm (acceptor). The IC50 values were determined using GraphPad prism software (GraphPad Software, Inc., San Diego, CA, USA).
# EGFR del19/C797S = EGFR del19/C797S (Homo sapiens, UniProt P00533, C797S/DEL746-750); assay: Biochemical EGFR kinase assay (Lance Ultra TR-FRET), del19/C797S
# Procedure: as §1, §2
# EGFR L858R/C797S = EGFR L858R/C797S (Homo sapiens, UniProt P00533, C797S/L858R); assay: Biochemical EGFR kinase assay (Lance Ultra TR-FRET), L858R/C797S
# Procedure: as §1, §2
# EGFR wildtype (WT) = EGFR wildtype (WT) (Homo sapiens, UniProt P00533); assay: Biochemical EGFR kinase assay (Lance Ultra TR-FRET), wildtype
# Procedure: as §1, §2
# EGFR L858R/T790M/C797S = EGFR L858R/T790M/C797S (Homo sapiens, UniProt P00533, C797S/L858R/T790M); assay: Biochemical EGFR kinase assay (Lance Ultra TR-FRET), L858R/T790M/C797S
# Procedure: as §1, §2
# [1] = read-out: IC50 del19/C797S (nM) 100 μM ATP, 100 μM ATP
# [2] = read-out: IC50 L858R/C797S (nM) 100 μM ATP, 100 μM ATP
# [3] = read-out: IC50 WT (nM) 100 μM ATP, 100 μM ATP
# [4] = Km ATP, read-out: IC50 del19/T790M/C797S (nM) Km ATP
# [5] = Km ATP, read-out: IC50 L858R/T790M/C797S (nM) Km ATP
# [6] = Km ATP, read-out: IC50 del19/C797S (nM) Km ATP
# [7] = Km ATP, read-out: IC50 L858R/C797S (nM) Km ATP
# [8] = Km ATP, read-out: IC50 WT (nM) Km ATP
# [9] = IC50 L858R/T790M/C797S (nM) 100 μM ATP, 100 μM ATP
# [10] = IC50 del19/C797S (nM) 100 μM ATP, 100 μM ATP
# [11] = IC50 L858R/C797S (nM) 100 μM ATP, 100 μM ATP
# [12] = IC50 WT (nM) 100 μM ATP, 100 μM ATP
Compound,IC50 (EGFR del19/T790M/C797S; [4]),IC50 (EGFR L858R/T790M/C797S; [5]),IC50 (EGFR del19/C797S; [6]),IC50 (EGFR L858R/C797S; [7]),IC50 (EGFR wildtype (WT); [8]),further results
"6-((2-(1-(Cyclopropylsulfonyl)-1H-pyrazol-4-yl)pyrimidin-4-yl)amino)-N-(2-fluoroethyl)-4-(((1R,3S)-3-(hydroxymethyl)cyclopentyl)amino)nicotinamide [Example 75]",,,,,,"IC50 (EGFR del19/T790M/C797S; read-out: IC50 del19/T790M/C797S (nM) 100 μM ATP, 100 μM ATP): 0.7 nM; IC50 (EGFR del19/C797S; [1]): 14.5 nM; IC50 (EGFR L858R/C797S; [2]): 30.5 nM; IC50 (EGFR wildtype (WT); [3]): > 10000 nM"
"CC(C)Nc1cc(Nc2ccnc(-c3cnn(S(=O)(=O)C4CC4)c3)n2)ncc1C(=O)C1CC1 [Example 1, Cyclopropyl(6-((2-(1-(cyclopropylsulfonyl)-1H-pyrazol-4-yl)pyrimidin-4-yl)amino)-4-(isopropylamino)pyridin-3-yl)methanone]",3.8 nM,1.1 nM,4.5 nM,84.3 nM,566 nM,
"C[C@@H](CCO)Nc1cc(Nc2ccnc(-c3cnn(S(=O)(=O)C4CC4)c3)n2)ncc1C(=O)C1CC1 [Example 8, (S)-Cyclopropyl(6-((2-(1-(cyclopropylsulfonyl)-1H-pyrazol-4-yl)pyrimidin-4-yl)amino)-4-((4-hydroxybutan-2-yl)amino)pyridin-3-yl)methanone]",0.4 nM,1.4 nM,61.6 nM,292 nM,471 nM,
"O=C(c1cnc(Nc2ccnc(-c3cnn(S(=O)(=O)C4CC4)c3)n2)cc1NCCCO)C1CC1 [Example 9, Cyclopropyl(6-((2-(1-(cyclopropylsulfonyl)-1H-pyrazol-4-yl)pyrimidin-4-yl)amino)-4-((3-hydroxypropyl)amino)pyridin-3-yl)methanone]",0.7 nM,2.5 nM,70.7 nM,479 nM,528 nM,
"O=C(c1cnc(Nc2ccnc(-c3cnn(S(=O)(=O)C4CC4)c3)n2)cc1NC1CCC(CO)C1)C1CC1 (stereo not drawn) [Example 13, Cyclopropyl(6-((2-(1-(cyclopropylsulfonyl)-1H-pyrazol-4-yl)pyrimidin-4-yl)amino)-4-((3-(hydroxymethyl)cyclopentyl)amino)pyridin-3-yl)methanone]",0.2 nM,0.2 nM,4.5 nM,61.7 nM,28.2 nM,
"CN(C)Cc1ccc(CNc2cc(Nc3ccnc(-c4cnn(C(F)F)c4)n3)ncc2C(=O)C2CC2)cc1 [Example 16, Cyclopropyl(6-((2-(1-(difluoromethyl)-1H-pyrazol-4-yl)pyrimidin-4-yl)amino)-4-((4-((dimethylamino)methyl)benzyl)amino)pyridin-3-yl)methanone]",2.3 nM,0.4 nM,13.2 nM,30.8 nM,176 nM,
"CN(C)Cc1ccc(CNc2cc(Nc3ccnc(-c4cnn(S(=O)(=O)C5CC5)c4)n3)ncc2C(=O)C2CC2)s1 [Example 20, Cyclopropyl(6-((2-(1-(cyclopropylsulfonyl)-1H-pyrazol-4-yl)pyrimidin-4-yl)amino)-4-(((5-((dimethylamino)methyl)thiophen-2-yl)methyl)amino)pyridin-3-yl)methanone]",2.2 nM,3.9 nM,415 nM,59.2 nM,239 nM,
"O=C(c1cnc(Nc2ccnc(-c3cnn(S(=O)(=O)C4CC4)c3)n2)cc1N[C@H]1CC[C@H](O)C1)C1CC1 [Example 24, Cyclopropyl(6-((2-(1-(cyclopropylsulfonyl)-1H-pyrazol-4-yl)pyrimidin-4-yl)amino)-4-(((1S,3S)-3-hydroxycyclopentyl)amino)pyridin-3-yl)methanone]",,,,,,IC50 (EGFR L858R/T790M/C797S; [9]): 4.4 nM; IC50 (EGFR del19/C797S; [10]): 70.9 nM; IC50 (EGFR L858R/C797S; [11]): 79.1 nM; IC50 (EGFR wildtype (WT); [12]): > 10000 nM
"CC(C)Nc1cc(Nc2ccnc(-c3cnn(S(=O)(=O)C4CC4)c3)n2)ncc1F [Example 41, N^2-(2-(1-(Cyclopropylsulfonyl)-1H-pyrazol-4-yl)pyrimidin-4-yl)-5-fluoro-N^4-isopropylpyridine-2,4-diamine]",,5.6 nM,47.7 nM,444 nM,145 nM,
"CC(C)(O)[C@H]1CC[C@@H](Nc2cc(Nc3ccnc(-c4cnn(S(=O)(=O)C5CC5)c4)n3)ncc2C(=O)C(F)F)CC1 [Example 50, 1-(6-((2-(1-(Cyclopropylsulfonyl)-1H-pyrazol-4-yl)pyrimidin-4-yl)amino)-4-(((1s,4s)-4-(2-hydroxypropan-2-yl)cyclohexyl)amino)pyridin-3-yl)-2,2-difluoroethan-1-one]",,1.1 nM,17.2 nM,42.8 nM,1170 nM,IC50 (EGFR L858R/T790M/C797S; [9]): 6.9 nM; IC50 (EGFR del19/C797S; [10]): 8.8 nM; IC50 (EGFR L858R/C797S; [11]): 157 nM; IC50 (EGFR wildtype (WT); [12]): > 10000 nM
"O=C(c1cnc(Nc2ccnc(-c3cnn(S(=O)(=O)C4CC4)c3)n2)cc1N[C@H]1CC[C@@H](NCCF)CC1)C(F)F [Example 51, 1-(6-((2-(1-(Cyclopropylsulfonyl)-1H-pyrazol-4-yl)pyrimidin-4-yl)amino)-4-(((1s,4s)-4-((2-fluoroethyl)amino)cyclohexyl)amino)pyridin-3-yl)-2,2-difluoroethan-1-one]",,1.1 nM,45.4 nM,47.1 nM,1240 nM,IC50 (EGFR L858R/T790M/C797S; [9]): 4.5 nM; IC50 (EGFR del19/C797S; [10]): 18.9 nM; IC50 (EGFR L858R/C797S; [11]): 407 nM; IC50 (EGFR wildtype (WT); [12]): > 10000 nM
"CN(C)C[C@H]1CC[C@H](CNc2cc(Nc3ccnc(-c4cnn(C5CC5)c4)n3)ncc2C(=O)C2CC2)CC1 [Example 60, Cyclopropyl(6-((2-(1-cyclopropyl-1H-pyrazol-4-yl)pyrimidin-4-yl)amino)-4-((((1r,4r)-4-((dimethylamino)methyl)cyclohexyl)methyl)amino)pyridin-3-yl)methanone]",5.4 nM,3.5 nM,,115 nM,430 nM,
"CN(C)C[C@H]1CC[C@H](CNc2cc(Nc3ccnc(-c4cnn(CC5CC5)c4)n3)ncc2C(=O)C2CC2)CC1 [Example 61, Cyclopropyl(6-((2-(1-(cyclopropylmethyl)-1H-pyrazol-4-yl)pyrimidin-4-yl)amino)-4-((((1r,4r)-4-((dimethylamino)methyl)cyclohexyl)methyl)amino)pyridin-3-yl)methanone]",5.7 nM,,,123 nM,415 nM,
"CC(=O)c1cnc(Nc2ccnc(-c3cnn(S(=O)(=O)C4CC4)c3)n2)cc1OC[C@H]1CC[C@H](CN(C)C)CC1 [Example 65, 1-(6-((2-(1-(Cyclopropylsulfonyl)-1H-pyrazol-4-yl)pyrimidin-4-yl)amino)-4-(((1r,4r)-4-((dimethylamino)methyl)cyclohexyl)methoxy)pyridin-3-yl)ethan-1-one]",0.7 nM,5.8 nM,52.5 nM,,389 nM,
"CC(C)C(=O)NC[C@H]1CC[C@H](CNc2cc(Nc3ccnc(-c4cnn(S(=O)(=O)C5CC5)c4)n3)ncc2C(=O)C2CC2)CC1 [Example 72, N-(((1r,4r)-4-(((5-(Cyclopropanecarbonyl)-2-((2-(1-(cyclopropylsulfonyl)-1H-pyrazol-4-yl)pyrimidin-4-yl)amino)pyridin-4-yl)amino)methyl)cyclohexyl)methyl)isobutyramide]",1 nM,,7.2 nM,45.8 nM,2040 nM,
"CC(NCC1CCC(CNc2cc(Nc3ccnc(-c4cnn(S(=O)(=O)C5CC5)c4)n3)ncc2C(=O)C2CC2)CC1)C(F)F (stereo not drawn) [Example 73, Cyclopropyl(6-((2-(1-(cyclopropylsulfonyl)-1H-pyrazol-4-yl)pyrimidin-4-yl)amino)-4-((((1r,4r)-4-(((1,1-difluoropropan-2-yl)amino)methyl)cyclohexyl)methyl)amino)pyridin-3-yl)methanone]",17.4 nM,3.1 nM,16.1 nM,,691 nM,
"CC(C)Nc1cc(Nc2ccnc(-c3cnn(S(=O)(=O)C4CC4)c3)n2)ncc1C1=CCCCO1 [Example 84, N^2-(2-(1-(Cyclopropylsulfonyl)-1H-pyrazol-4-yl)pyrimidin-4-yl)-5-(3,4-dihydro-2H-pyran-6-yl)-N^4-isopropylpyridine-2,4-diamine]",,,,,,"IC50 (EGFR del19/T790M/C797S; IC50 del19/T790M/C797S (nM) 100 μM ATP, 100 μM ATP): 4.5 nM; IC50 (EGFR del19/C797S; [10]): 107 nM; IC50 (EGFR L858R/C797S; [11]): 523 nM; IC50 (EGFR wildtype (WT); [12]): > 10000 nM"
Cyclopropyl(6-((2-(1-(cyclopropylsulfonyl)-1H-pyrazol-4-yl)pyrimidin-4-yl)amino)-4-((4-((4-methylpiperazin-1-yl)amino)cyclohexyl)amino)pyridin-3-yl)methanone [Example 54],,,,,,IC50 (EGFR del19/C797S; [1]): 66.1 nM; IC50 (EGFR L858R/C797S; [2]): 33.8 nM; IC50 (EGFR wildtype (WT); [3]): > 10000 nM
